In PubChem BioAssay (NCI):
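48-hour exposure; five concentrations; linearly interpolated endpoints. TGI: concentration producing complete growth inhibition.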

How the values were obtained:
Assay in all cases: NCI tumour cell line growth inhibition, 48 h
[1] = tested on: OVCAR-8 ovarian
[2] = tested on: UO-31 renal
[3] = tested on: MOLT-4 leukemia
[4] = tested on: BT-549 breast
[5] = tested on: HCT-15 colon
[6] = tested on: MDA-MB-231 breast
[7] = tested on: COLO 205 colon
[8] = tested on: MALME-3M melanoma
[9] = tested on: HL-60(TB) leukemia
[10] = tested on: HOP-62 NSCLC
[11] = tested on: NCI-H522 lung
[12] = tested on: EKVX NSCLC
[13] = tested on: NCI-H23 lung
[14] = tested on: SN12C renal
[15] = tested on: OVCAR-4 ovarian
[16] = tested on: DU-145 prostate
[17] = tested on: PC-3 prostate
[18] = tested on: UACC-257 melanoma
[19] = tested on: SF-295 CNS

SMILES | TGI [1] [µM] | TGI [2] [µM] | TGI [3] [µM] | TGI [4] [µM] | TGI [5] [µM] | TGI [6] [µM] | TGI [7] [µM] | TGI [8] [µM] | TGI [9] [µM] | TGI [10] [µM] | TGI [11] [µM] | TGI [12] [µM] | TGI [13] [µM] | TGI [14] [µM] | TGI [15] [µM] | TGI [16] [µM] | TGI [17] [µM] | TGI [18] [µM] | TGI [19] [µM]
CC(=O)OCOC(=O)CN(CC(=O)OCOC(C)=O)Cc1cc2c(cc1OC(C)=O)Oc1cc(OC(C)=O)c(CN(CC(=O)OCOC(C)=O)CC(=O)OCOC(C)=O)cc1C21OC(=O)c2ccccc21 | 3.23 | 6.38 | 0.843 | 1.16 | 7.05 | 3.64 | 1.86 | 1.88 | 0.0289 | 3.48 | 1.17 | 10.6 | 2.51 | 2.83 | 3.42 | 6.35 | 4.82 | 1.27 | 11.1
COc1ccc2nc(N/N=C/C(C)=N/Nc3cc(C)c4cc(OC)ccc4n3)cc(C)c2c1 | 39.5 | > 100 | 42.1 | > 100 | 25.1 | 36.7 | 57.9 | 76.4 | 40.6 | 50.5 | 40.3 | 40.2 | 48.9 | 51.4 | 35.6 | 34.8 | 45.6 | > 86.6 | 42.8
N=c1oc2c(Cl)cc(Cl)cc2cc1C(=O)Nc1cccc2ccccc12 | 14.2 | > 40.9 | > 37.5 | > 100 | > 100 | 11.3 | > 32.7 | > 100 | > 100 | 42.3 | > 100 | > 74.3 | > 52.6 | 12.8 | 6.37 | > 100 | > 100 | > 100 | 96.9
CCSCCC(N)C(=O)O (stereo not drawn) | > 100 | > 100 | > 100 | > 100 | > 100 | > 100 | > 100 | > 100 | > 100 | > 100 | > 100 | > 100 | > 100 | > 100 | > 100 | > 100 | > 100 | > 100 | > 100
CCN(CC)CCC(=O)c1ccc(Oc2ccc(Cl)cc2)cc1 | 44.9 | 32.4 | 42.2 | 32.6 | 38.8 | 29.2 | 45.1 | 34.8 | 59.8 | 24.1 | 38 | 42.2 | 34 | 31.2 | 36.1 | 47.8 | 28.3 | 28.6 | 32.4
Cn1c(=S)[nH]c2sc3c(c2c1=O)CCSC3 | > 100 | 25.8 | > 100 | > 100 | > 100 | > 100 | > 100 | > 100 | 43.3 | 66.3 | > 100 | 85.4 | > 100 | > 100 | > 100 | 57.1 | > 100 | > 100 | 97.3
COC(=O)C1=CC2CCCC1(O)C(C(C)=O)C2 (stereo not drawn) | > 79.5 | 38.6 | 43.8 | > 100 | > 100 | > 100 | > 100 | > 100 | 47.8 | > 100 | 31.7 | > 86.6 | > 100 | > 100 | > 100 | > 100 | > 100 | > 100 | > 100
